Test results reported in US12516058B2, “Small-molecule compounds for controlling endosomal toll-like receptors and therapeutic agent for autoimmune diseases using same” (priority 2020, dated 2026).
“Also recorded” adds a separate entry of the source.

Target: T1, TLR7 (Mus musculus, UniProt P58681)
T1 construct: endogenous in cells; host or cells: RAW 264.7
T1 sequence (P58681 27-1050): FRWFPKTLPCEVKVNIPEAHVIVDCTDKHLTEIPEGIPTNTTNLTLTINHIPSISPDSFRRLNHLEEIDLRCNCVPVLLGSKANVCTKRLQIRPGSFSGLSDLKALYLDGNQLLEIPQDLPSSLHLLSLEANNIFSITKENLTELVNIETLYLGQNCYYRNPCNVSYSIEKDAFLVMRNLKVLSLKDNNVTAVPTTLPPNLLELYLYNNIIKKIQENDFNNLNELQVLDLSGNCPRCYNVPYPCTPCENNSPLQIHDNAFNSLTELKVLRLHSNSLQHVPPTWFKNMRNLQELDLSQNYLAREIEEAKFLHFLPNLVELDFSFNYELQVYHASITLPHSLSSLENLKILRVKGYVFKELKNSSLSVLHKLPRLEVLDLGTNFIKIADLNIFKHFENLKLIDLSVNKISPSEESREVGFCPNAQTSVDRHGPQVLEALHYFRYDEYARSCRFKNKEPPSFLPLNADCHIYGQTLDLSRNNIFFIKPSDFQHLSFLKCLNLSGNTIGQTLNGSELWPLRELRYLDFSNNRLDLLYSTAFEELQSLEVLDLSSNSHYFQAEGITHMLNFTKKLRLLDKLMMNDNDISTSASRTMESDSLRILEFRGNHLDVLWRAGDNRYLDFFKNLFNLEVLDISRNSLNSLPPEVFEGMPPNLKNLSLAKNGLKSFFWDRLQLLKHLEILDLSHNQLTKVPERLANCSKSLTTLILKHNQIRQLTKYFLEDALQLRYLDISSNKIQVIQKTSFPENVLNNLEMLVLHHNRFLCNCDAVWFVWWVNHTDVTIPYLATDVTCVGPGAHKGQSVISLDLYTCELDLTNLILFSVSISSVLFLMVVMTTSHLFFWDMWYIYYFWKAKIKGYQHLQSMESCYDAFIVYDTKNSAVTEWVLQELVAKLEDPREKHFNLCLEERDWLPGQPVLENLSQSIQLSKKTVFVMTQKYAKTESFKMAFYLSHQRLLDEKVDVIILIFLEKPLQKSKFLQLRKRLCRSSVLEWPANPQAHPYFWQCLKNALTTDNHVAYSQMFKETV
Assay: TNF-α secretion ELISA after TLR7 agonist imiquimod (IMQ) in RAW 264.7 cells
Format: cell-based
Settings: for inhibitory activity against TLR7 activation (TNF-α secretion): SK01 and structural derivatives, inhibitor 1 h, then IMQ 4 h; for inhibitory activity against TLR7 (level of TNF-α secretion): SK21 to SK82 at 0.5 μM or 2 μM, Imiquimod 1 μg/ml
Method: In order to determine the inhibitory activities of the test-ligand, RAW 264.7 cells were pretreated with each candidate compound for 1 hour, then treated with Pam3CSK4 (synthetic triacyl lipopeptide; TLR1/2, Invitrogen), FSL-1 (synthetic diacyl lipoprotein, TLR2/6, 100 ng/ml), lipopolysaccharide (LPS, TLR4, Sigma Aldrich), imiquimod (IMQ, TLR7, Invitrogen), and ODN2395 (type C CpG repeat motif DNA oligo(5′-[…]-3), TLR9, Bioneer) ligand for 4 hours, and treated with poly I:C (I:C repeat motif double-stranded RNA, TLR3, Invitrogen) and TL8-506 (TLR8, Invitrogen) showing delayed reactivity for 24 hours. After activation of TLR, the supernatant was diluted in an appropriate ratio so as to measure within the standard dose range, transferred to a pre-coated 96-well assay plate, and then treated with mouse TNF-alpha secretion level in accordance with the manufacturer's instructions using a mouse-TNF-alpha ELISA-kit (Invitrogen).
In order to plot the concentration-dependent LC50 curves, treatment with the SK series ligands at different concentrations up to 200 μM (the highest concentration that could be treated within the level of 0.5% DMSO) was performed. Then, cell viability and toxicity response upon treatment with ligands were analyzed by MTT as described in Examples 1-3. Cell viability in each plot was normalized from negative control (100%; no treatment) to positive control (highest concentration of test-ligand), and LC50 was determined by non-linear regression (Graph Pad Prism 7.0). In order to plot the concentration-dependent IC50 curves, pre-treatment with the SK series ligands was performed at different concentrations up to 50 μM (twice the initial concentration). Cell responses mediated by TLR7 and TLR9 (levels of TNF-α secretion) were analyzed by ELISA as described in Examples 1-4. The cytokine level in each plot was normalized from negative control (non-treated) to positive control (treatment with ligand), and IC50 was determined by non-linear regression (Graph Pad Prism 7.0).
In order to select potential inhibitory molecules against TLR3/TLR7/TLR8/TLR9 activation, first, MTT (3-(4,5-dimethylthiazol-2-yl)-2,5-diphenyltetrazolium bromide) cell viability assay (FIG. 7) was performed upon treatment with a set of ligands from SK21 to SK82 at a concentration of 20 μM and the inhibitory activity thereof was evaluated by an ELISA assay to monitor the level of TNF-α secretion in RAW 264.7 cells. The experimental ligands from SK21 to SK82 were administered at 0.5 μM or 2 μM to the RAW 264.7 cells and stimulated with Imiquimod (TLR7, 1 μg/ml) and OND2395 (TLR9, 0.5 μM).

| SMILES | inhibitory activity against TLR7 activation (TNF-α secretion) | inhibitory activity against TLR7 (level of TNF-α secretion) |
| --- | --- | --- |
| Cc1c(C)n(CCN(C)C)c2nc3c(c(N)c12)CCCCC3 [SK01, 1-(2-(dimethylamino)ethyl)-2,3-dimethyl-1,5,6,7,8,9-hexahydrocyclohepta[b]pyrrolo[3,2-e]pyridin-4-amine] | inhibitory ability for TLR7/TLR9 activation was verified; also recorded: specifically inhibit | – |
| Cc1c(C)n(CCCN(C)C)c2nc3c(c(N)c12)CCCCC3 [SK16, 1-(3-(dimethylamino)propyl)-2,3-dimethyl-1,5,6,7,8,9-hexahydrocyclohepta[b]pyrrolo[3,2-e]pyridin-4-amine] | potent inhibitor; also recorded: best inhibitory activity among the structural analogues of SK01; also recorded: specifically inhibit | – |
| Cc1cc2c(N)c3c(nc2n1CCCN(C)C)CCCCCC3 [SK41, 1-(3-(dimethylamino)propyl)-2-methyl-5,6,7,8,9,10-hexahydro-1H-cycloocta[b]pyrrolo[3,2-e]pyridin-4-amine] | – | significant inhibitory activity; also recorded: significantly reduced |
| COc1ccc2c(c1)c1c(N)c3c(nc1n2CCCN(C)C)CCCC3 [SK50, 6-(3-(dimethylamino)propyl)-9-methoxy-2,3,4,6-tetrahydro-1H-indolo[2,3-b]quinolin-11-amine] | – | significant inhibitory activity; also recorded: significantly reduced |
| Cc1ccc2c(c1)c1c(N)c3c(nc1n2CCCN(C)C)CCCC3 [SK58, 6-(3-(dimethylamino)propyl)-9-methyl-2,3,4,6-tetrahydro-1H-indolo[2,3-b]quinolin-11-amine] | – | significant inhibitory activity; also recorded: significantly reduced |
| COC(=O)c1ccc2c(c1)c1c(N)c3c(nc1n2CCCN(C)C)CCCC3 [SK64, Methyl 11-amino-6-(3-(dimethylamino)propyl)-2,3,4,6-tetrahydro-1H-indolo[2,3-b]quinolin-9-carboxylate] | – | significant inhibitory activity; also recorded: significantly reduced |
